Data as given in ChEMBL document CHEMBL3217615, “Novel 3,5-bis(arylidiene)-4-piperidone based monocarbonyl analogs of curcumin: anticancer activity evaluation and mode of action study” (2014).

Legend:
Type in all cases: functional
[1] = tested on: COLO 205; experiment: Induction of apoptosis in human COLO205 cells assessed as late apoptosis cells level at 10 uM after 24 hrs by Annexin V/propidium iodide staining-based fluorescence microscopy
[2] = tested on: COLO 205; experiment: Induction of apoptosis in human COLO205 cells assessed as caspase 9 activation at 10 uM by FLICA
[3] = tested on: COLO 205; experiment: Induction of apoptosis in human COLO205 cells assessed as necrotic apoptosis cells level at 10 uM after 24 hrs by Annexin V/propidium iodide staining-based fluorescence microscopy
[4] = tested on: COLO 205; experiment: Induction of apoptosis in human COLO205 cells assessed as early apoptosis cells level at 10 uM after 24 hrs by Annexin V/propidium iodide staining-based fluorescence microscopy
[5] = tested on: COLO 205; experiment: Induction of apoptosis in human COLO205 cells assessed as caspase 3/7 activation at 10 uM by FLICA
[6] = tested on: COLO 205; experiment: Induction of apoptosis in human COLO205 cells at 10 uM after 24 hrs by Annexin V/propidium iodide staining-based fluorescence microscopy
[7] = tested on: COLO 205; experiment: Induction of apoptosis in human COLO205 cells assessed as DNA fragmentation at 10 uM
[8] = tested on: COLO 205; experiment: Induction of apoptosis in human COLO205 cells assessed as caspase 8 activation at 10 uM by FLICA
[9] = tested on: COLO 205; experiment: Induction of apoptosis in human COLO205 cells assessed as viable cells level at 10 uM after 24 hrs by Annexin V/propidium iodide staining-based fluorescence microscopy

Structure (SMILES): CC[C@@]1(O)C(=O)OCc2c1cc1n(c2=O)Cc2cc3ccccc3nc2-1 [CAMPTOTHECIN]
- Activity [1]: 17%
- Activity [2]: 19.5%
- Activity [3]: 0%
- Activity [4]: 42%
- Activity [5]: 62%
- Activity [6]: 53%
- Activity [7]: 80.5%
- Activity [8]: 23.5%
- Activity [9]: 40%
